Test results reported in US20200079766A1, “MONOCYCLIC OGA INHIBITOR COMPOUNDS” (Janssen Pharmaceutica NV, priority 2016, published 2020).

Legend:
[1] = target: T1, recombinant human Meningioma Expressed Antigen 5 (MGEA5), also referred to as O-GlcNAcase (OGA) (Homo sapiens, UniProt O60502); assay: OGA biochemical assay: inhibition of FM-GlcNAc hydrolysis, fluorescence; protocol A (10 nM OGA, 1 h) or protocol B (2 nM OGA, 6 h); settings: Enzymatic protocol B (2 nM OGA, 6 h); for IC50: read-out: Enzymatic hOGA, pIC50 (converted)
T1 construct: Full length OGA enzyme was purchased at OriGene (cat # TP322411); purchased OriGene TP322411
T1 sequence (O60502 1-916): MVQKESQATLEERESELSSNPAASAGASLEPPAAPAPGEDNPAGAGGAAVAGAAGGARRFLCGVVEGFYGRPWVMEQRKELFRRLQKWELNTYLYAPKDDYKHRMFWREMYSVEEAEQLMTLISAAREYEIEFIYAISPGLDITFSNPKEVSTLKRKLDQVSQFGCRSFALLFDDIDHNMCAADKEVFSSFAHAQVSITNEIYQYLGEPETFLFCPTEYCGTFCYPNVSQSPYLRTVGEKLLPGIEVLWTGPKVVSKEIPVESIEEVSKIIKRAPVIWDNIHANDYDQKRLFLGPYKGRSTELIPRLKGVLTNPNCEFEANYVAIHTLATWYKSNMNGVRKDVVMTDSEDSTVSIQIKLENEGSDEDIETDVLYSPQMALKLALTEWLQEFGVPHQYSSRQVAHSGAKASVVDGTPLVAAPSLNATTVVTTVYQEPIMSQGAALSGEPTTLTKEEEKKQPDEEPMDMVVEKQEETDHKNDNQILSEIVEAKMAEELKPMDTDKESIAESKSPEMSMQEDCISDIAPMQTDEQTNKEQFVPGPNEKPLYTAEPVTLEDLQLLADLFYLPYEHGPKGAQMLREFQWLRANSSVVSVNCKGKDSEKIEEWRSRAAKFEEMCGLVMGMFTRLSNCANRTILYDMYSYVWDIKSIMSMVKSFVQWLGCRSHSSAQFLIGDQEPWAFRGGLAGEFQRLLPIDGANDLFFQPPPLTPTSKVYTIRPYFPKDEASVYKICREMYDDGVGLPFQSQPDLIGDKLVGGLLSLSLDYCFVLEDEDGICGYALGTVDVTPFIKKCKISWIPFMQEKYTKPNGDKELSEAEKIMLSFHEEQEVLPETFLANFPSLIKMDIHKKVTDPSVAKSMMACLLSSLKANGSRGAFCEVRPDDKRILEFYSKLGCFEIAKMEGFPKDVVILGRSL
How it was run: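 Full-length human OGA in 200 mM citrate/phosphate pH 7.2 with 0.005% Tween-20, compound pre-incubated 60 min at RT, then 100 uM FM-GlcNAc (final); 10 nM enzyme for 1 h or 2 nM for 6 h at RT. Stopped with pH 11.0 carbonate; fluorescein read at ex 485/em 538 nm. IC50 and Hill coefficient from curve fit.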

[2] = system: OGA in HEK293 cells inducible for P301L mutant human Tau (isoform 2N4R); assay: OGA cellular assay: immunocytochemical detection of O-GlcNAcylated proteins (CTD110.6 antibody) after 6 h incubation; format: cell-based; settings: for Emax / EC50: Homo sapiens, HEK293, 6 h; for Emax / Cellular Emax (%): maximum = Thiamet G 200 uM; for EC50: read-out: Cellular hOGA, pEC50 (converted)
How it was run: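 Low-glucose medium, 6 h compound exposure at 0.2% DMSO; cells PFA-fixed and O-GlcNAc ICC signal imaged at 488 nm (9 fields/well), Hoechst nuclei counted for toxicity. Thiamet G 200 uM on each plate as maximum; IC50 from non-linear regression.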

| SMILES | Emax [1] | IC50 [1] | Emax [2] | EC50 [2] | Enzymatic Emax (%) [1] | Enzymatic hOGA; pIC50 [1] | Cellular hOGA; pEC50 [2] | Cellular Emax (%) [2] |
| --- | --- | --- | --- | --- | --- | --- | --- | --- |
| CC(=O)Nc1ncc(CN2CCC(OCc3cc(C)nc(C)c3)C2)s1 (stereo not drawn) [compound 81] | 102% | 72.4 nM | 51.7% | 501 nM |  |  |  |  |
| CC(=O)Nc1ncc(CN2CC[C@H](Cc3ccc(C)nc3C#N)C2)s1 [compound 84] |  |  |  |  | 102.6% | 8.30 | 7.43 | 81.9% |
| CC(=O)Nc1ncc(CN2CC[C@H](Cc3cc(C)cc(C)n3)C2)s1 [compound 85] | 101% | 8.71 nM | 86.9% | 46.8 nM |  |  |  |  |
| CC(=O)Nc1ncc(CN2CCC(Cc3cnc(C)c(C)n3)C2)s1 (stereo not drawn) [compound 86] |  |  |  |  | 101.3% | 8.49 | 7.4 | 83.5% |
| CC(=O)Nc1ncc(CN2CCC(COc3cc(C)nc(C)c3)C2)s1 (stereo not drawn) [compound 89] | 100% | 26.3 nM | 72.4% | 81.3 nM |  |  |  |  |
| CC(=O)Nc1ncc(CN2CCC(Cc3ccc(C)nn3)C2)s1 (stereo not drawn) [compound 90] |  |  |  |  | 100% | 7.77 | 6.83 | 73.7% |
| CC(=O)Nc1ncc(CN2CCC(Cc3cnc(C#N)cn3)C2)s1 (stereo not drawn) [compound 91] |  |  |  |  | 102% | 8.21 | 7.28 | 102.1% |
| CC(=O)Nc1ncc(CN2CC[C@H](Cc3cnc(C(=O)NC(C)(C)C)cn3)C2)s1 [compound 92] | 99.7% | 22.4 nM | 92.6% | 81.3 nM |  |  |  |  |
| CC(=O)Nc1ncc(CN2CCC(Cc3cncnc3C)C2)s1 (stereo not drawn) [compound 103] | 103% | 46.8 nM | 86.9% | 132 nM |  |  |  |  |
| CC(=O)Nc1ncc(CN2CCC(Cc3ncc(F)cc3C)C2)s1 (stereo not drawn) [compound 104] | 102% | 20 nM | 89.4% | 58.9 nM |  |  |  |  |
| CC(=O)Nc1ncc(CN2CCC(Cc3cnc(C(N)=O)cn3)C2)s1 (stereo not drawn) [compound 105] | 102% | 19.5 nM | 93.3% | 100 nM |  |  |  |  |
| CC(=O)Nc1ncc(CN2CCC(Cc3cc(F)ncc3C)C2)s1 (stereo not drawn) [compound 106] | 101% | 21.4 nM | 86.9% | 41.7 nM |  |  |  |  |
| COc1nc(C)ccc1CC1CCN(Cc2cnc(NC(C)=O)s2)C1 (stereo not drawn) [compound 109] | 103% | 18.6 nM | 115% | 52.5 nM |  |  |  |  |
| CC(=O)Nc1ncc(CN2CC[C@H](Cc3cc(C)nc(F)c3)C2)s1 [compound 110] | 103% | 20 nM | 91.3% | 24.5 nM |  |  |  |  |
| CC(=O)Nc1ncc(CN2CC[C@@H](Cc3cc(C)nc(F)c3)C2)s1 [compound 111] | 103% | 30.9 nM | 97.4% | 52.5 nM |  |  |  |  |
| CC(=O)Nc1ncc(CN2CC[C@H](Cc3cc(C)nc(C)c3)C2)s1 [compound 112] | 102% | 4.57 nM | 118% | 17.8 nM |  |  |  |  |
| CC(=O)Nc1ncc(CN2CC[C@@H](Cc3cc(C)nc(C)c3)C2)s1 [compound 113] | 102% | 4.47 nM | 105% | 11.2 nM |  |  |  |  |
| Cc1cc([C@H]2CCCN([C@@H](C)c3ccc4sc(C)nc4c3)C2)cc(C)n1 [compound 117] | 102% | 12 nM | 99.5% | 97.7 nM |  |  |  |  |
| CC(=O)Nc1ncc(CN2CCC[C@H](Cc3ncc(F)cc3F)C2)s1 [compound 121] | 98.3% | 4.27 nM | 110% | 28.8 nM |  |  |  |  |
| CC(=O)Nc1ncc(CN2CCC[C@H](Cc3cc(F)ncc3C)C2)s1 [compound 122] | 100% | 2.51 nM | 97.2% | 4.17 nM |  |  |  |  |
| CC(=O)Nc1ncc(CN2CCC[C@H](Cc3cc(C)nc(F)c3)C2)s1 [compound 123] | 99.2% | 2.75 nM | 90.5% | 9.77 nM |  |  |  |  |
